Results taken from patent US20230181662A1, “USES OF ANTRODIA CINNAMOMEA EXTRACT IN MANUFACTURING PRODUCTS FOR REDUCING EXPRESSION AND TREATING ASSOCIATED DISEASES OF ANGIOTENSIN CONVERTING ENZYME 2” (priority 2020, published 2023).
“Also recorded” adds a separate entry of the source.

Molecular target: ACE-2 (Homo sapiens, UniProt Q9BYF1)
Test: ACE-2 enzyme activity assay (MCA based peptide substrate, fluorescence)
Format: biochemical
Details: 20 μg/mL each compound

ACE-2, sequence (Q9BYF1 18-805, species assumed): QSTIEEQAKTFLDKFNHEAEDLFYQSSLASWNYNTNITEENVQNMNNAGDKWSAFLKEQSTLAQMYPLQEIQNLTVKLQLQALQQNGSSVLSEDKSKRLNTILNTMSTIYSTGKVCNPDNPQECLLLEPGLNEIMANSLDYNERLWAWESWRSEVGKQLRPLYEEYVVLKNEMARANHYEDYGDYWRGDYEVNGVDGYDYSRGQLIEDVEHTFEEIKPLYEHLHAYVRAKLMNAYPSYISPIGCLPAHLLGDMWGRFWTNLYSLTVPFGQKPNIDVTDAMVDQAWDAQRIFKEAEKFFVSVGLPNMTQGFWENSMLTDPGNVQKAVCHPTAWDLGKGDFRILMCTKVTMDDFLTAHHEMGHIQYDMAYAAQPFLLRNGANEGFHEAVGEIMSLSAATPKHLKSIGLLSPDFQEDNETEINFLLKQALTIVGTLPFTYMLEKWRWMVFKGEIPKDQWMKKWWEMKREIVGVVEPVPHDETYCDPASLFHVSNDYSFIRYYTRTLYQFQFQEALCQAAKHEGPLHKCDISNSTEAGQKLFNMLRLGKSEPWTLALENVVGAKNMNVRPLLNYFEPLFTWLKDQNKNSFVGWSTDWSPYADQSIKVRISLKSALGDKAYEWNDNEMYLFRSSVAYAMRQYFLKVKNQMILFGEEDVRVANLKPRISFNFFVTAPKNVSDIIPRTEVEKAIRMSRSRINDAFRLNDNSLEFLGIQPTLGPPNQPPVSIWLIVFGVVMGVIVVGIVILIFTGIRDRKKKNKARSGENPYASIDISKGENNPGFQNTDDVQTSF

Molecule	inhibition of ACE-2 enzyme activity
C=C(CC[C@@H](C(=O)O)[C@H]1C[C@H](O)[C@@]2(C)C3=CC[C@H]4C(C)(C)[C@@H](O)CC[C@]4(C)C3=CC[C@]12C)C(C)C [DSA, dehydrosulphurenic acid]	more than 30%

Same assay, conditions: 20 μg/mL each ingredient

Molecule	inhibition ability on ACE-2 enzymatic activity
Antcin C	had inhibition ability
C=C(CC[C@@H](C(=O)O)[C@H]1CC[C@@]2(C)C3=CC[C@H]4C(C)(C)[C@@H](O)CC[C@]4(C)C3=CC[C@]12C)C(C)C [DEA, dehydroeburicoic acid]	had inhibition ability; also recorded: have ability of inhibition on ACE-2
C=C(CC[C@@H](C(=O)O)[C@H]1C[C@H](O)[C@@]2(C)C3=CC[C@H]4C(C)(C)[C@@H](O)CC[C@]4(C)C3=CC[C@]12C)C(C)C [DSA, dehydrosulphurenic acid]	stronger inhibition activity; also recorded: have ability of inhibition on ACE-2
C=C(CCC(C)C1CCC2C3=C(C(=O)C(O)C21C)C1(C)CCC(O)C(C)C1CC3=O)C(C)C(=O)O (stereo not shown) [Antcin H]	had inhibition ability
Antcin K	stronger inhibition activity; also recorded: have ability of inhibition on ACE-2
C=C(CC[C@@H](C)[C@H]1CC[C@H]2C3=C(C(=O)C[C@]12C)[C@@]1(C)CCC(=O)[C@@H](C)[C@@H]1CC3)C(C)C(=O)O (stereo partly shown) [Antcin A]	stronger inhibition activity
